Assay [1] is described as follows: Dose response study of induced locomotor stimulation (Example 2, Table I). The format is in vivo, male Swiss-Webster mice. The note with it: IP; for Maximal Effect Relative to Cocaine / ED50: Table I; for ED50: Mus musculus, 30-60 minutes period, read-out: ED50 (dose producing 1/2 maximal stimulant activity).
Assay [2] deals with T1, human serotonin transporter (Homo sapiens, UniProt P31645).
T1 construct: expressed in transfected cells; host or cells: HEK cells (HEK-hSERT)
T1 sequence (P31645 whole entry): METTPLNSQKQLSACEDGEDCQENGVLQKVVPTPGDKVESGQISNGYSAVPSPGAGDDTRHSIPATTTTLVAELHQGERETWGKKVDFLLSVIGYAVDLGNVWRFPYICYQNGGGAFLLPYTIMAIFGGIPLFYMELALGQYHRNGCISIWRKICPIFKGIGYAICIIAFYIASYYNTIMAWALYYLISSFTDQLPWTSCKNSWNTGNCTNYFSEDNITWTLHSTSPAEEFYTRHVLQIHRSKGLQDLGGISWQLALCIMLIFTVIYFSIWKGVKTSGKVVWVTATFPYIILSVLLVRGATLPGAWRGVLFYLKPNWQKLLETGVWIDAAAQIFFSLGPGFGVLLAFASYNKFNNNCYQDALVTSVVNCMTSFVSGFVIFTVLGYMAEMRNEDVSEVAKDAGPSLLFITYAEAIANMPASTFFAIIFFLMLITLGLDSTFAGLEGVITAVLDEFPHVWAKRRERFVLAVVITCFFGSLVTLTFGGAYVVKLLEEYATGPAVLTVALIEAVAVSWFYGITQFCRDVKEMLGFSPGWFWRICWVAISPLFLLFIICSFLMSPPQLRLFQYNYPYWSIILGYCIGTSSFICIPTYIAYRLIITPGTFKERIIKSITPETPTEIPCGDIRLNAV
As to the kind of experiment: [125I]RTI-55 binding to serotonin transporter, HEK-hSERT cells.

In assay [3] the target is T2, human norepinephrine transporter (Homo sapiens, UniProt P23975).
T2 construct: expressed in transfected cells; host or cells: HEK cells (HEK-hNET)
T2 sequence (P23975 whole entry): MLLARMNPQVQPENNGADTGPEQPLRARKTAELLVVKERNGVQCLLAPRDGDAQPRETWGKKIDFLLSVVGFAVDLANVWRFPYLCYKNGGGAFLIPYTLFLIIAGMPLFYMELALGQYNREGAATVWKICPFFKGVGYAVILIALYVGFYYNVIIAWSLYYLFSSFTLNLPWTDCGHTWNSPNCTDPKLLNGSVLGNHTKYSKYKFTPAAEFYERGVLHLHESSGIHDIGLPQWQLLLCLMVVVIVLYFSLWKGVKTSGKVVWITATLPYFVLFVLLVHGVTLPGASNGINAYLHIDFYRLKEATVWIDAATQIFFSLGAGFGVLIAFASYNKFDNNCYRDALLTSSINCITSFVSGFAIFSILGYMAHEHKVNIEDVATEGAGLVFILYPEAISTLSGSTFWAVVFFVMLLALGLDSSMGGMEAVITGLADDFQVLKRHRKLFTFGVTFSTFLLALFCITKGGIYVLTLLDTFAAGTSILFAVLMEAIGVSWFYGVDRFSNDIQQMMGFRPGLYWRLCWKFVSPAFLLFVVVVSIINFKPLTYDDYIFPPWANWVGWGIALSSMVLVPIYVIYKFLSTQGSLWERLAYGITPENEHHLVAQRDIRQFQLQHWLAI
As to the kind of experiment: biochemical. The format is binding.

The target of assay [4] is T1, human serotonin transporter. As to the kind of experiment: [3H]serotonin uptake by HEK-hSERT cells. The format is cell-based. The note with it: for inhibition of serotonin reuptake: Example 5; for IC50: Inhibition of 5HT uptake, IC50, HEK-hSERT cells; for 5HT uptake/binding: ratio; for 5HT/DA uptake: selectivity ratio.
Assay [5] has as its target T2, human norepinephrine transporter. As to the kind of experiment: cell-based. The format is cell-based.
Assay [6] concerns the target T3, human dopamine transporter (Homo sapiens, UniProt Q01959). Put plainly: [3H]dopamine uptake by C6-hDAT cells. The following applies: for IC50: Inhibition of DA uptake, IC50, C6-hDAT cells; for DA uptake/binding: ratio.
Description: Drugs (10 mM stock solution) were dissolved in DMSO. The final DMSO concentration in the assay is 0.01 percent. Pipetting was performed with a Biomek 2000 robotic work station.
Uptake was initiated with the addition of [3H]DA (20 nM, specific acitivity 20-53 Ci/mmol) in a final volume of 500 μl. Mazindol (5 μM) was used to define nonspecific uptake. Cells were preincubated for 10 minutes, with drug before addition of neurotransmitter. Uptake was terminated after a 2 minute incubation by removing buffer, and the plate was placed on ice and washed twice with 1 ml ice cold phosphate-buffered saline.
Assay [7] has as its target T3, human dopamine transporter. As to the kind of experiment: [125I]RTI-55 binding to dopamine transporter, C6-hDAT cells. The arrangement: expressed in transfected cells; host or cells: C6 cells (C6-hDAT). The note with it: read-out: Binding to DA cloned transporter, [I125]RTI-55 Ki.
Assay [8] is described as follows: Interaction study: antagonism of cocaine-induced locomotor stimulation (Example 3). The note with it: for effect on the stimulant effect of cocaine (words): IP, 20 mg/kg cocaine, mice; for p, one-way ANOVA, overall effect for treatment groups: log10 horizontal activity counts, 0-30 minutes.
A short description of assay [9]: Eight hour time course of locomotor stimulation, cocaine alone and Compound 2 alone (Example 4). The following applies: for p, two-way ANOVA, effect of Treatment: horizontal activity counts/10 min, eight hours; for p, one-way ANOVA, effect of Treatment: log10 horizontal activity counts.
Setting [10] is: human, hek-hnet and c6-hdat cells.
[11] abbreviates: HEK-hNET cells, read-out: Binding to NE cloned transporter, [I125]RTI-55 Ki.
Setting [12] is: HEK-hNET cells, read-out: Inhibition of NE uptake, IC50.
The mark [13] stands for this setting: IP, 10, 20 and 40 mg/kg cocaine.

Where “and” joins values, the source holds several entries; their conditions need not be identical. Equal entries are not always repeated. Entries after “also recorded” stand apart in the source; their conditions may differ. Where two headings read alike, the source gives them in different places.

T3 sequence (Q01959 whole entry): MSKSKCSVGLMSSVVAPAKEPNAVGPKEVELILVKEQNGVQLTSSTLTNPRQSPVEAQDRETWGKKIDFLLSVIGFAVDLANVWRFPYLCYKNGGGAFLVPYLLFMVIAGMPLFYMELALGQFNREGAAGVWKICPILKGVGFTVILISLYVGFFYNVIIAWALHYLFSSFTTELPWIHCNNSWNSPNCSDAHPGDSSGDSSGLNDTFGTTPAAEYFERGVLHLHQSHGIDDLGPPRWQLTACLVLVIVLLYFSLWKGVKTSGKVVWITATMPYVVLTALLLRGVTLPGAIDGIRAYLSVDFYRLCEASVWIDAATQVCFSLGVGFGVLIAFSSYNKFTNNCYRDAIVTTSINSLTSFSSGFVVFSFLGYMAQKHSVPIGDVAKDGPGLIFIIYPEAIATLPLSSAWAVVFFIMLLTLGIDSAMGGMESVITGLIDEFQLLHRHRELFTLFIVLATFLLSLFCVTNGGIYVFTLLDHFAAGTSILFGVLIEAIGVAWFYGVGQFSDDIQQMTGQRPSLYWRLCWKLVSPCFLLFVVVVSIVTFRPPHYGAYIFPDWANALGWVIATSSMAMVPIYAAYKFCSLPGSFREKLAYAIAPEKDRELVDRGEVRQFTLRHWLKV

The term Ki denotes the dissociation constant of the complex between target and ligand, obtained from inhibition or displacement. In general, IC50 refers to the concentration that inhibits the measured activity by half. As for `CN(C)C1CC(c2ccc(Cl)c(Cl)c2)c2ccccc21` (stereo not shown) [Compound 1], the “Maximal Effect Relative to Cocaine” value in assay [1] is given as 0.82. Further, the ED50 in assay [1] (mice) was 4.88 mg/kg. The same molecule showed an inhibition constant (Ki) in [2] of 3.1 ± 1.2 nM. The Ki in assay [3] (Binding to NE cloned transporter, [I125]RTI-55 Ki) came out at 370 ± 60 nM. In assay [4], the “inhibition of serotonin reuptake” value is “selectively inhibits serotonin and norepinephrine reuptake”; the half-maximal inhibitory concentration (IC50) is 6.7 ± 2.2 nM; the 5HT uptake/binding is listed as 2.2; the 5HT/DA uptake was 0.035. For the same molecule, the “inhibition of norepinephrine reuptake” value in assay [5] was “selectively inhibits serotonin and norepinephrine reuptake”. For the same molecule, the IC50 in assay [5] (Inhibition of NE uptake, IC50) was determined as 72 ± 40 nM. Also, the NE/DA uptake in assay [5] (setting [10]) is given as 0.38. For the same molecule, the NE uptake/binding in [5] (human, hek-hnet cells) came out at 0.19. In assay [6], the IC50 is 190 ± 20 nM and the DA uptake/binding came out at 6.6. Besides, in assay [7], the Ki came to 29 ± 6 nM.
On to `CCCN(C)C1CC(c2ccc(Cl)c(Cl)c2)c2ccccc21` (stereo not shown) [Compound 2], for which the “Maximal Effect Relative to Cocaine” value in [1] is reported as 0.51. In assay [1] (mice), the ED50 was determined as 5.65 mg/kg. Moreover, the Ki in assay [2] was 44 ± 6 nM; in assay [3] (setting [11]), 400 nM and 260 nM; in [7], 180 ± 100 nM. Further, in assay [4], the “inhibition of serotonin reuptake” value was “reduced inhibition of serotonin and norepinephrine reuptake”. The IC50 in assay [4] was 190 nM and 1500 nM; in assay [5] (setting [12]) it was 640 nM and 420 nM; in assay [6] it was 340 nM and 190 nM. In addition, the “inhibition of norepinephrine reuptake” value in [5] (Example 5) was “reduced inhibition of serotonin and norepinephrine reuptake”. Besides, in [5] (setting [10]), the NE/DA uptake was 1.9 and 2.2. This molecule registered an NE uptake/binding in assay [5] (human, hek-hnet cells) of 1.6. The DA uptake/binding in assay [6] was 1.4 and 1.1. The “effect on the stimulant effect of cocaine (words)” value (“effect on the stimulant effect” for short) in assay [8] (20 mg/kg) is on record as “antagonized the stimulant effect of cocaine”; in [8] (listed as Compounds 2, 20 mg/kg), “Block the Effects of Cocaine in Mice”. Further, in assay [8], the “p, one-way ANOVA, overall effect for treatment groups” value (“p, one-way ANOVA, overall effect” for short) is listed as over 0.05. For the same molecule, in [9] (Compound 2 IP, 280-310 min), the “dose at maximum effect” value is given as 12.9 mg/kg. Further, the “maximum effect estimated from fitted dose-response curve” value in [9] (Compound 2 IP, 280-310 min, vehicle constant 399) was 4581 counts/10 min. For the same molecule, in assay [9] (IP, Compound 2, 3 to 30 mg/kg), the “duration of stimulant effects” value is reported as “Up to Seven”. In [9], the “p, two-way ANOVA, effect of Treatment” value is reported as under 0.001. For the same molecule, the “p, one-way ANOVA, effect of Treatment” value in [9] (280-310 min) is given as under 0.001.
With `CCN(C)C1CC(c2ccc(Cl)c(Cl)c2)c2ccccc21` (stereo not shown) [Compound 3], in assay [1], the “Maximal Effect Relative to Cocaine” value was determined as 0.93. Moreover, in [1] (mice), the ED50 amounted to 10.8 mg/kg. In addition, in [4], the IC50 is 24 ± 7 nM, the 5HT uptake/binding amounted to 1.5 and the 5HT/DA uptake worked out at 0.10. In assay [6], the IC50 stood at 270 ± 30 nM and the DA uptake/binding was 6.9.
As for `CCNC1CC(c2ccc(Cl)c(Cl)c2)c2ccccc21` (stereo not shown) [Compound 4], in [1], the “Maximal Effect Relative to Cocaine” value came to 1.07. Besides, the ED50 in assay [1] (mice) was 3.9 mg/kg. In addition, affinity in assay [2] was put at a Ki of 2 ± 0.8 nM. Besides, in assay [4], 13 ± 4 nM corresponded to half-maximal inhibition (IC50), the 5HT uptake/binding is reported as 6.5 and the 5HT/DA uptake was 0.21. Besides, in assay [6], the half-maximal inhibitory concentration (IC50) is 61 ± 12 nM and the DA uptake/binding turned out to be 7.5.
Turning to `CC(C)(C)NC1CC(c2ccc(Cl)c(Cl)c2)c2ccccc21` (stereo not shown) [Compound 6], in assay [1] (mice), the ED50 is 506 mg/kg. In addition, in assay [4], the midpoint of inhibition, the IC50, lay at 3100 ± 1200 nM; the 5HT uptake/binding is 4.2; the 5HT/DA uptake is listed as 8.4. In addition, the IC50 in assay [5] (setting [12]) is 310 ± 50 nM. In addition, in [5] (ratio), the NE uptake/binding is 2.1. Moreover, the NE/DA uptake in [5] (selectivity ratio) is on record as 0.84. Also, in [6], the IC50 was determined as 370 ± 170 nM and the DA uptake/binding came out at 2.8. For the same molecule, the “effect on the stimulant effect” value in [8] (20 mg/kg) is on record as “Block the Effects of Cocaine in Mice; also recorded: antagonized the stimulant effect of cocaine”. Besides, in assay [8], the “p, one-way ANOVA, overall effect” value is given as under 0.5.
Consider `CN(C1CC(c2ccc(Cl)c(Cl)c2)c2ccccc21)C(C)(C)C` (stereo not shown) [Compound 7], for which the “effect on locomotor activity” value in assay [1] (mice) was “inhibited locomotor activity; also recorded: reducing locomotor activity”. Also, the IC50 in assay [4] was over 10000 nM; in assay [6] it was 2700 ± 1500 nM. Moreover, in [6], the DA uptake/binding was 3.0. Also, the “effect on the stimulant effect” value in assay [8] (20 mg/kg) is “Block the Effects of Cocaine in Mice; also recorded: antagonized the stimulant effect of cocaine; also recorded: lock the effects of cocaine in laboratory mice”. Besides, the “p, one-way ANOVA, overall effect” value in [8] is under 0.5.
On to `CC(C)N(C)C1CC(c2ccc(Cl)c(Cl)c2)c2ccccc21` (stereo not shown) [Compound 8], for which, in assay [6], the IC50 was found to be 53 ± 1 nM and the DA uptake/binding amounted to 0.24. Besides, in [7], the Ki was found to be 220 ± 40 nM.
Regarding `CCCNC1CC(c2ccc(Cl)c(Cl)c2)c2ccccc21` (stereo not shown) [Compound 9], the Ki in assay [2] came out at 93 ± 9 nM; in assay [3] (setting [11]), 110 ± 50 nM; in [7] it was 32 ± 6 nM. Further, the IC50 in assay [4] was determined as 240 ± 70 nM; in assay [5] (setting [12]) it was 75 ± 35 nM; in assay [6], 51 ± 21 nM. Also, the 5HT uptake/binding in assay [4] was 2.6. In addition, the 5HT/DA uptake in assay [4] was determined as 4.7. In assay [5] (setting [10]), this molecule displayed an NE/DA uptake of 1.5. The NE uptake/binding in assay [5] (human, hek-hnet cells) was determined as 0.68. Besides, the DA uptake/binding in assay [6] was found to be 1.6.
`CN(Cc1ccccc1)C1CC(c2ccc(Cl)c(Cl)c2)c2ccccc21` (stereo not shown) [Compound 10]: in [4], the midpoint of inhibition, the IC50, lay at 3700 ± 1300 nM; the 5HT uptake/binding came out at 21; the 5HT/DA uptake worked out at 6.7. For the same molecule, in assay [6], the IC50 stood at 550 ± 200 nM and the DA uptake/binding is on record as 4.6.
Regarding `COC(=O)[C@H]1[C@@H](OC(=O)c2ccccc2)C[C@@H]2CC[C@H]1N2C` [cocaine], the “time of maximal stimulant effects” value in [9] (IP, 20 mg/kg cocaine) is on record as “during the first 30 minutes”. In assay [9] (setting [13]), the “duration of stimulant effects” value is given as “up to 3 hours” and the “onset of stimulant effects” value was at most 10 min. For the same molecule, the “dose at maximum effect” value in assay [9] (cocaine IP, first 30 minutes) was 18.3 mg/kg. Besides, the “maximum effect estimated from fitted dose-response curve” value in assay [9] (cocaine IP, first 30 minutes, vehicle constant 3172) was 6059 counts/10 min. Also, the “p, two-way ANOVA, effect of Treatment” value in assay [9] was 0.089. For the same molecule, the “p, one-way ANOVA, effect of Treatment” value in assay [9] (0-30 min) is under 0.001.

Values taken from patent US5821386A (priority 1997, dated 1998).
